Laboratory results from US9872493B2, “Method for promoting plant growth” (SUMITOMO CHEMICAL COMPANY, LIMITED, priority 2012, dated 2018).

Key:
[1] = system: Nicotiana benthamiana; experiment: Test for evaluating growth promotion under low-temperature stress by hydroponics of Nicotiana benthamiana (Test Examples 4-6); type: in vivo; conditions: compound at 0.1 ppm, 7 days at 1.5±1.0° C. low-temperature stress, then 3 days at 22° C., green leaf area vs untreated control, read-out: value of a relative leaf area (equation (1))
Method: A DMSO solution, which contained one of the compounds 5, 14, 22, 23, 24, 25, 26, 28, 30, 31, 32, 33, 34, 35, 38, 39 and 40 of the present invention at a concentration of 10,000 ppm, was prepared. The DMSO solution of the compound of the present invention was added at a volume ratio of 1/1,000 to the Murashige•Scoog medium of a ½-fold concentration (a medium containing 2.3 g of mixed salts (manufactured by Wako Pure Chemical Industries, Ltd.), 200 mg of Myo-inositol (manufactured by Sigma-Aldrich Co. LLC.), 2 mg of nicotinic acid (manufactured by Wako Pure Chemical Industries, Ltd.), 2 mg of pyridoxine hydrochloride (manufactured by Wako Pure Chemical Industries, Ltd.), 20 mg of thiamine hydrochloride (manufactured by Wako Pure Chemical Industries, Ltd.), 20 g of sucrose (manufactured by Wako Pure Chemical Industries, Ltd.), and 1 g of MES (manufactured by DOJINDO LABORATORIES) per 1 L of water and having pH adjusted to 5.8), thereby preparing a medium containing the compound of the present invention at a concentration of 10 ppm.
Seeds of Nicotiana benthamiana were seeded in the 5 μL of the medium and cultured overnight at 22° C. Thereafter, 45 μL of the medium containing the compound of the present invention at a concentration of 10 ppm was added thereto, and the seeds are cultivated for 7 days at 22° C., an illuminance of 4,000 lux, and a day length of 16 hours, thereby the nursery plants raised from the Nicotiana benthamiana were treated with the compound.
Moreover, instead of the above medium a test plot, which was obtained by performing the same treatment by using a medium prepared by adding DMSO to the Murashige•Scoog medium of ½-fold concentration at a volume ratio of 1/1,000, was used as a control plot not treated with the compound.
The nursery plants of the Nicotiana benthamiana treated with the compound were subjected to low-temperature treatment by being cultivated for 7 days at 1.5±1.0° C., an illuminance of 2,000 lux, and a day length of 16 hours.
The nursery plants of the Nicotiana benthamiana having undergone the low-temperature stress treatment were cultivated for 3 days at 22° C., an illuminance of 4,000 lux, and a day length of 16 hours. Thereafter, the area of green leaf was quantified by Scanalyzer HTS (manufactured by LemnaTec GmbH). Moreover, the value of the control plot not treated with the compound that had not yet been subjected to the low-temperature stress treatment was measured in the same manner. A value of a relative leaf area was calculated based on the following equation (1), and if the value of a relative leaf area was 5 or greater, the compound was evaluated to have a mitigating effect. As a result of the evaluation, it was confirmed that when the plant was treated with one of the compounds 5, 14, 22, 23, 24, 25, 26, 28, 30, 31, 32, 33, 34, 35, 38, 39 and 40 of the present invention at 10 ppm, the value of a relative leaf area was 5 or greater, compared to the area of green leaf of the control plot not treated with compound. Accordingly, it was confirmed that the treatment using the compound of the present invention brings about a growth promotion effect. Relative leaf area=100*(a green area of a plot treated with the compound of the present invention−a green area of a control plot not treated with the compound of the present invention)/(a green area of a control plot not treated with the compound of the present invention that has not yet been subjected to low-temperature stress treatment−a green area of a control plot not treated with the compound of the present invention) Equation (1): […]
A DMSO solution, which contained one of the compounds 6, 7, 8, 11, 12, 15, 19, 23, 24, 25, 28, 30, 31, 33, 34, 36, 37, 38 and 39 of the present invention at a concentration of 1,000 ppm, was prepared. […]

[2] = system: Rice (Variety: Nipponbare); experiment: Test for evaluating promotion of root growth by hydroponics of rice (Test Examples 1-3); type: in vivo
Method: Rice (Variety: Nipponbare)
(§1) A DMSO solution, which contained one of the compounds 14, 18, 21, 23, 26, 28, 29, 30, 35, 36, 37, 39 and 40 of the present invention at a concentration of 100,000 ppm, was added to Hoagland hydroponic solution (Hoagland and Arnon, California Agricultural Experiment Station 1950 Circular 347 pp. 34) of ¼-fold concentration at a volume ratio of 1/10,000. In this manner, hydroponic solutions containing one of the compounds 14, 18, 21, 23, 26, 28, 29, 30, 35, 36, 37, 39 and 40 of the present invention at 10 ppm were prepared respectively. As an untreated control plot, a hydroponic solution obtained by adding DMSO to Hoagland hydroponic solution of ¼-fold concentration at a volume ratio of 1/10,000 was used.
(§2) Rice seeds were soaked in a 1% aqueous sodium hypochlorite solution for 10 minutes, then soaked in a 70% ethanol solution for surface sterilization, and then washed with distilled water. The sterilized seeds were soaked in a hydroponic solution containing the test compound described above at 10 ppm and incubated in a dark place for 3 days at 28° C. to perform treatment for hastening germination.
(§3) Thereafter, 30 ml of hydroponic solution containing the test compound at 10 ppm was dispensed in a plastic tube (diameter of 20 mm×height of 113 mm) of which the side was covered with cardboard to block light. A float prepared using a styrene board and vinyl mesh was floated, and the rice seeds that had undergone the treatment for hastening germination were placed on the float on the surface of the hydroponic solution. The seeds were cultivated for 3 days at 26° C., an illuminance of 4,000 lux of the top surface of the tube, a humidity of 50%, and a day length of 16 hours.
The nursery plants of rice obtained after cultivating were measured in terms of the length of seminal root by using WinRHIZO system (manufactured by Regent Instruments Inc). For each test plot, an average of the measured values of the seminal root of 4 or 5 individuals were determined.
as §1, with “compounds 7, 8, 9, 10, 12, 17, 20,” for “compounds 14, 18,”, “21, 25, 27,” for “21, 23, 26,”, “30, 34,” for “30,”, “37, 38,” for “37,”, “of 10,000” for “of 100,000”, “at 1” for “at 10”
as §2, with “at 1” for “at 10”
as §3, with “1” for “10”
The nursery plants of rice obtained after cultivation were measured in terms of the length of seminal root by using WinRHIZO system (manufactured by Regent Instruments Inc). […]

Compound: CCOC(=O)c1csc2cc(C(F)(F)F)ccc12 [Compound 29]
- relative green leaf area after low-temperature stress at 0.1 ppm [1]: ≥ 5%
- length of seminal root compared with the untreated control plot (in words) ([2]; 0.1 ppm): obviously longer
- length of seminal root compared with the untreated control plot (in words) ([2]; 1 ppm): obviously longer
- length of seminal root compared with the untreated control plot (in words) ([2]; 10 ppm): obviously longer
